Read-outs that look alike come from different tables or passages of the source.
What was measured:
[1] = tested on: DLD1 and T47D cells; experiment: Cell death quantification (ferroptosis sensitivity); assay type: cell-based
Description: Cells were seeded in 96-well plates at appropriate cell densities (DLD1: 10000 cells/well, T47D: 15000 cells/well), and incubated overnight at 37° C. containing 5% CO2. Contact-inhibited MEFs were seeded in 24-well plates and incubated as described above. Cell were then subjected to treatments as described in figures. Cells were stained with Hoechst 33342 (0.1 μg/ml) to monitor total cell number, and with Sytox Green (5 nM) to monitor cell death. Culture plates were read by Cytation 5 at indicated time point. Percentage of cell death was calculated as Sytox Green-positive cell number over total cell number.

[2] = tested on: DLD1, T47D and HaCaT cells; experiment: Western blot: GSH synthesis enzymes, peroxiredoxin oxidation; assay type: cell-based, human; conditions: 100 μM MitoPQ, 24 hours; similar extent in cells lacking NADK2 and control cells
Source text: Protein was then transferred to nitrocellulose membrane for immunoblotting.

[3] = tested on: T47D, MCF10A, HaCaT and DLD1 cells; experiment: Cell proliferation (cell number fold change); assay type: cell-based, human; conditions: supplements at concentrations present in DMEM/F12
Description: FIGS. 3A-3B show cell proliferation measured as cell number fold change (Day 4/Day 0) of T47D cells treated with sgCtrl, sgNADK2-1, or sgNADK2-2, cultured in the indicated medium and supplementation. “LA” is lipoic acid. “Pyr” is pyruvate. “Cu” is cupric sulfate. “Zn” is zinc sulfate. “B12” is vitamin B12. “A” is alanine. “D” is aspartate. “N” is asparagine. “E” is glutamate, and “P” is proline. All supplements were added at the concentrations present in DMEM/F12. […] FIGS. 3D-3F show a Western blot (FIG. 3D), proline abundance measured by GC-MS (FIG. 3E), and cell proliferation (FIG. 3F) of DMEM-cultured T47D cells treated with sgCtrl or sgNADK2-2 and ectopically expressing vector or NADK2 cDNA resistant to sgNADK2-2 mediated CRISPR-Cas9 genome editing. FIGS. 3G-3I show a Western blot (FIG. 3G), proline abundance measured by GC-MS (FIG. 3H), and cell proliferation (FIG. 3I) of DMEM-cultured T47D cells treated with sgCtrl, sgNADK2-1, or sgNADK2-2 and ectopically expressing vector or the POS5 cDNA. All error bars represent mean+SD, n=3. In FIGS. 3A-3C, 3H, and 3I, one-way ANOVA was performed. In FIGS. 3E and 3F, a two-sided t-test was performed with Welch's correction. ** P<0.01; *** P<0.001; n.s., P>0.05.
FIGS. 8D-8H show cell proliferation measured as cell number fold change of the indicated cells with sgCtrl, sgNADK2-1, or sgNADK2-2, cultured in the indicated medium and supplementation. […]

[4] = tested on: MEFs; conditions: proline supplementation to the medium
Description: In brief, confluent MEFs were grown for two days on plates coated with 0.1% gelatin in the presence of 50 μM ascorbate (Sigma, A4034) in the indicated medium. Plates were decellularized with 20 mM ammonium hydroxide/0.5% Triton X-100 for 5 min on a rotating platform. Three times the volume of PBS was added, and ECM was equilibrated overnight at 4° C., followed by four additional PBS washes. To measure collagen abundance, extracted ECM was stained with the Picro Sirius Red Stain Kit (Abcam, ab150681) according to the manufacturer's instructions. The stain was extracted with 0.1 M NaOH, and optical density was measured at 550 nm using a microplate reader. Values were normalized to the packed cell volume of cells grown on a separate plate under the same experimental conditions.

[5] = tested on: MEFs; conditions: 300 μM proline added to culture medium
Description: (§1) Cells were lysed in RIPA lysis buffer (Millipore 20-188) supplemented with protease inhibitors (Thermo Fisher, 78428). Protein concentration was determined by BCA protein assay (Thermo Fisher, 23228), following which equal amount of protein was loaded and separated in polyacrylamide gels. Protein was then transferred to nitrocellulose membrane for immunoblotting.

[6] = tested on: NIH-3T3 cells; conditions: 0.15 mM proline in culture medium
Description: as §1

SMILES: COC(=O)c1ccc([C@@H]2c3[nH]c4ccccc4c3C[C@@H](C(=O)OC)N2C(=O)CCl)cc1 [RSL3]
- cell death of cells lacking NADK2 upon ferroptosis inducer ([1]; vs control cells, 24 or 48 hours): no increase in cell death

SMILES: CCOc1ccccc1-n1c(C(C)N2CCN(C(=O)COc3ccc(Cl)cc3)CC2)nc2ccccc2c1=O (centres unmarked) [Erastin]
- cell death of cells lacking NADK2 upon ferroptosis inducer [1]: no increase in cell death

SMILES: C[n+]1ccc(-c2cc[n+](CCCCCCCCCC[P+](c3ccccc3)(c3ccccc3)c3ccccc3)cc2)cc1.[I-].[I-].[I-] [MitoParaquat]
- expression of enzymes involved in GSH synthesis [2]: increased

SMILES: O=C(O)[C@@H]1CCCN1 [proline, L-proline]
- growth of cells lacking NADK2 in DMEM upon supplementation [3]: necessary and sufficient to restore proliferation
- collagen secretion of fibroblasts lacking NADK2 upon supplementation [4]: rescued
- ATF4 accumulation in cells lacking NADK2 [5]: blunted
- collagen expression in cells lacking NADK2 [5]: restored
- expression of collagen protein in P5CS-deleted cells upon proline addition [6]: restored

From patent publication US20240209353A1, “NADK2 INHIBITION IN CANCER AND FIBROTIC DISORDERS” (Memorial Sloan-Kettering Cancer Center, priority 2021, published 2024)
